Patent publication KR20230059409A, “Egf 유래 신규 펩타이드 및 이의 용도” (고려대학교 산학협력단, priority 2021, dated 2023)
No end group written: not given here.

Tests used:
인간유래 중간엽줄기세포(hMSC) = experiment: 3D spheroid stem cell migration test (branch sprouting in collagen matrix); format: cell-based, human; settings: peptide in DMEM 10uM / 100uM, 37℃, 16 h; for extent of stem cell branches extending from 3D spheroid (Fig. 2): compared with EGF group or DMEM only
hMSC = experiment: 2D traction force microscope stem cell migration test; format: cell-based, human; settings: 24 h imaging; for effect on stem cell mobility (conclusion of the test): hMSC

Substance	length of stem cell branches extending from 3D spheroid, quantified (Fig. 3) (인간유래 중간엽줄기세포(hMSC))	extent of stem cell branches extending from 3D spheroid (Fig. 2) (인간유래 중간엽줄기세포(hMSC))	stem cell migration speed (Fig. 7 and 8) (hMSC; hMSC on collagen-coated PA gel with fluorescent beads, compared among EGF, EGP 2, JEP 4 media)	effect on stem cell mobility (conclusion of the test) (hMSC)
NTKVGYIGEREQYRDLK-NH2 [EGP2]	줄기세포 가지가 상대적으로 긴 것으로 나타났다	줄기세포 가지가 가장 많이 뻗어나간 것을 확인	속도가 가장 빠른 것으로 나타났다	줄기세포의 이동성을 증진시키는 효과가 있음
YCLHDGVSMYIEALDKYACN [JEP4]	줄기세포 가지가 상대적으로 긴 것으로 나타났다	줄기세포 가지가 가장 많이 뻗어나간 것을 확인	–	줄기세포의 이동성을 증진시키는 효과가 있음
